In patent US8552013B2, “Heterocyclic compounds based on N6-substituted adenine, methods of their preparation, their use for preparation of drugs, cosmetic preparations and growth regulators, pharmaceutical preparations, cosmetic preparations and growth regulators containing these compounds” (USTAV Experimentalni Botaniky Akademie Ved Ceske Republiky, priority 2001, dated 2013):
Several values for one entry are separate records, joined by “and”; a condition that tells them apart may be missing. Equal entries are not always repeated. Where two headings read alike, the source gives them in different places.

Tests used:
[1] = tested on: Amaranthus caudatus cotyledon/hypocotyl explants; experiment: Amaranthus bioassay, betacyanin content; assay type: in vivo; details: betacyanin content at the concentration with highest activity
Method: Standard Amaranthus bioassay was performed with several modifications. The seeds of Amaranthus caudatus var. atropurpurea were surface-sterilised in 10% N-chlorobenzenesulfonamide (w/v) for 10 min and washed 5 times in deionized water. They were placed in 14 cm Petri dishes containing paper tissues saturated with deionized water. After 72 h of cultivation at 25° C. in darkness, the roots of the seedlings were cut off. The explants, consisting of two cotyledons and hypocotyls, were placed in 5 cm Petri dishes on two layers of filter paper soaked in 1 ml of incubation medium containing 10 μmol NA2HPO4-KH2PO4, pH 6.8, 5 μmol tyrosine and the cytokinin to be tested. There were 20 explants per dish. The procedure was carried out under a green safe light in a darkroom. After a 48 h of incubation at 25° C. in darkness, betacyanin was extracted by freezing the explants in 4 ml […] acetic acid. The concentration of betacyanin was determined by comparing the absorbance at 537 nm and 620 nm as follows: ΔA=[…] nm-A620 nm. From the obtained data, the concentration with highest activity was selected for each compound tested. Relative activity of the compound at this concentration was calculated (Tab. 6). […] The values shown in table 8 are means of five replicates and the entire test was repeated twice. The cytokinins to be tested were dissolved in dimethylsulfoxide (DMSO) and the solution brought up to 10^-3M with distilled water. This stock was further diluted in the respective media used for the biotest to concentrations ranging from 10^-8M to 10^-4M.

[2] = tested on: breast carcinoma cell line MCF-7; experiment: Calcein AM cytotoxicity, MCF7; assay type: cell-based, human; details: read-out: IC 50, MCF7
From the text: (§1) One of the parameters used, as the basis for cytotoxicity assays, is the metabolic activity of viable cells. For example, a microtiter assay, which uses the Calcein AM, is now widely used to quantitate cell proliferation and cytotoxicity. For instance, this assay is used in drug screening programs and in chemosensitivity testing. Because only metabolically active cells cleave Calcein AM, these assays detect viable cells exclusively. The quantity of reduced Calcein AM corresponds to the number of vital cells in the culture.
(§2) The cells were maintained in Nunc/Corning 80 cm^2 plastic tissue culture flasks and cultured in cell culture medium (DMEM with 5 g/l glucose, 2 mM glutamine, 100 U/ml penicillin, 100 μg/ml streptomycin, 10% fetal calf serum and sodium bicarbonate).
(§3) The cell suspensions that were prepared and diluted according to the particular cell type and the expected target cell density (2.500-30.000 cells per well based on cell growth characteristics) were added by pipette (80 μl) into 96/well microtiter plates. Inoculates were allowed a pre-incubation period of 24 hours at 37° C. and 5% CO2 for stabilisation. Four-fold dilutions of the intended test concentration were added at time zero in 20 μl aliquots to the microtiter plate wells. Usually, test compound was evaluated at six 4-fold dilutions. […] All drug concentrations were examined in duplicates. Incubations of cells with the test compounds lasted for 72 hours at 37° C., in 5% CO2 atmosphere and 100% humidity. At the end of incubation period, the cells were assayed by using the Calcein AM. Ten microliters of the stock solution were pipetted into each well and incubated further for 1 hours. Fluorescence (FD) was measured with the Labsystem FIA Reader Fluoroscan Ascent (UK).

[3] = tested on: B16-F0 melanoma; experiment: Calcein AM cytotoxicity, B16-F0; assay type: cell-based; details: Mus musculus, B16F0, 72 h, read-out: IC 50, B16-F0
From the text: as §1
(§4) Human T-lymphoblastic leukemia cell line CEM; promyelocytic HL-60 and monocytic U937 leukemias; breast carcinoma cell lines MCF-7, BT549, MDA-MB-231; glioblastoma U87MG cells; cervical carcinoma cells HELA; sarcoma cells U2OS and Saos2; hepatocellular carcinoma HepG2; mouse fibroblasts NIH3T3; mouse immortalized bone marrow macrophages B2.4 and B10A.4; P388D1 and L1210 leukemia; B16 and B16F10 melanomas were used for routine screening of compounds. The cells were maintained in Nunc/Corning 80 cm^2 plastic tissue culture flasks and cultured in cell culture medium (DMEM with 5 g/l glucose, 2 mM glutamine, 100 U/ml penicillin, 100 μg/ml streptomycin, 10% fetal calf serum and sodium bicarbonate).
(§5) The cell suspensions that were prepared and diluted according to the particular cell type and the expected target cell density (2.500-30.000 cells per well based on cell growth characteristics) were added by pipette (80 μl) into 96/well microtiter plates. Inoculates were allowed a pre-incubation period of 24 hours at 37° C. and 5% CO2 for stabilisation. Four-fold dilutions of the intended test concentration were added at time zero in 20 μl aliquots to the microtiter plate wells. Usually, test compound was evaluated at six 4-fold dilutions. In routine testing, the highest well concentration was […], but it can be the matter of change dependent on the agent. All drug concentrations were examined in duplicates. Incubations of cells with the test compounds lasted for 72 hours at 37° C., in 5% CO2 atmosphere and 100% humidity. At the end of incubation period, the cells were assayed by using the Calcein AM. Ten microliters of the stock solution were pipetted into each well and incubated further for 1 hours. Fluorescence (FD) was measured with the Labsystem FIA Reader Fluoroscan Ascent (UK). The tumour cell survival (GI50) was calculated using the following equitation: TCS═(FDdrug exposed well/mean FDcontrol wells)×100%. The GI50 value, the drug concentration lethal to 50% of the tumour cells, was calculated from the obtained dose response curves (FIG. 1).

[4] = tested on: tobacco callus Nicotiana tabacum L. cv. Wisconsin 38; experiment: Cytokinin-dependent tobacco callus growth; assay type: cell-based; details: fresh callus weight at the concentration with highest activity
Method: Cytokinin-dependent tobacco callus Nicotiana tabacum L. cv. Wisconsin 38 was maintained at 25° C. in darkness on modified Murashige-Skoog medium, containing per 1 liter: 4 μmol nicotinic acid, 2.4 μmol pyridoxine hydrochloride, 1.2 μmol thiamine, 26.6 μmol glycine, 1.37 μmol glutamine, 1.8 μmol myo-inositol, 30 g of sucrose, 8 g of agar, 5.37 μmol α-naphtylacetic acid (NAA) and 0.5 μmol benzylaminopurine (BAP). Subcultivation was carried out every three weeks. Fourteen days before the bioassay, the callus tissue was transferred to the media without 6-benzylaminopurine (BAP). Biological activity was determined from the increase in fresh callus weight after four weeks of cultivation. Five replicates were prepared for each cytokinin concentration and the entire test was repeated twice. From the obtained data, the concentration with highest activity was selected for each compound tested. Relative activity of the compound at this concentration was calculated (Tab. 6). The activity obtained for 10^−4 M 6-benzylaminopurine (BAP) was postulated as 100%. The cytokinins to be tested were dissolved in dimethylsulfoxide (DMSO) and the solution brought up to 10^−3M with distilled water. This stock was further diluted in the respective media used for the biotest to concentrations ranging from 10^−8M to 10^−4M.

[5] = tested on: promyelocytic HL-60 leukemia; experiment: Calcein AM cytotoxicity, HL60; assay type: cell-based, human; details: read-out: IC 50, HL60
From the text: as §1, §2, §3

[6] = tested on: T-lymphoblastic leukemia cell line CEM; experiment: Calcein AM cytotoxicity, CEM; assay type: cell-based, human
From the text: as §1, §2, §3

[7] = tested on: Triticum aestivum cv. Hereward leaf tips; experiment: Retention of chlorophyll in excised wheat leaf tips; assay type: in vivo; details: chlorophyll retention at the concentration with highest activity
Method: Seeds of winter wheat, Triticum aestivum cv. Hereward, were washed under running water for 24 hours and then sown on vermiculite soaked with Knop's solution. They were placed in the grown chamber at 25° C. with a 16/8 h light period at 50 μmol.m^−2.s^−1. After 7 days, the first leaf was fully developed and the second leaf had started to grow. A tip section of the first leaf, approximately 35 mm long, was removed from 5 seedlings and trimmed slightly to a combined weight of 100 mg. The basal ends of the five leaf tips were placed in the wells of a microtiter polystyrene plate containing 150 μl of a cytokinin solution each. The entire plate was inserted into a plastic box lined with paper tissues soaked in distilled water to prevent leaf sections from drying out. After a 96 h incubation in the dark at 25° C., the leaves were removed and chlorophyll extracted by heating at 80° C. for 10 min in 5 ml of 80% ethanol (v/v). The sample volume was then restored to 5 ml by the addition of 80% ethanol (v/v). The absorbency of the extract was recorded at 665 nm. In addition, chlorophyll extracts from fresh leaves and leaf tips incubated in deionised water were measured. From the obtained data, the concentration with highest activity was selected for each compound tested. Relative activity of the compound at this concentration was calculated (Tab. 6). The activity obtained for 10^−4 M 6-benzylaminopurine (BAP) was postulated as 100%. The values shown are means of five replicates and the whole experiment was repeated twice. The cytokinins to be tested were dissolved in dimethylsulfoxide (DMSO) and the solution brought up to 10^−3M with distilled water. This stock was further diluted in distilled water to concentrations ranging from 10^−8M to 10^−4M.

[8] = tested on: K-562; experiment: Calcein AM cytotoxicity, K-562; assay type: cell-based; details: read-out: IC 50, K-562
From the text: as §1, §2, §3

[9] = tested on: human diploid fibroblasts (HCA cells); experiment: Senescence, beta-galactosidase staining of human diploid fibroblasts; assay type: cell-based
Method: In this example, human diploid fibroblasts (HCA cells of various passage levels: passage 25—designated HCA25; passage 45—designated HCA45; passage 80—designated HCA80) were stained for β-galactosidase activity. The medium used for cell cultivation was removed, the cells were washed twice in […], and fixed in 2-3 ml of fixing solution comprised of a 2% formaldehyde and 0.2% glutaraldehyde in PBS. The cells were incubated at room temperature for 5 minutes, then washed twice with PBS. The cells were subsequently incubated at 37° C. (without CO2) for 1 to 16 hours in 2-3 ml of a solution comprising potassium ferricyanide (5 mM), potassium ferrocyanide (5 mM), MgCl2 (2 mM), X-gal (5-bromo-4-chloro-3-indolyl-β-D-galactopyranoside) (1 mg/ml), in citric/phosphate buffer, pH 6.0). […] In this experiment, senescent cells, but not other cells were stained blue due to the action of β-galactosidase on the substrate (FIG. 4).

[10] = tested on: HOS; experiment: Calcein AM cytotoxicity, HOS; assay type: cell-based
From the text: as §1, §4, §5

| Compound | activity (%) [10^−5 mol · l^−1 BAP = 100%] [1] | IC50 ([2]; Homo sapiens, MCF7, 72 h) | IC50 [3] | Activity (%) [10^−4 mol · l^−1 BAP = 100%] [4] | IC50 ([5]; Homo sapiens, HL-60, 72 h) | IC50 ([6]; Homo sapiens, 72 h) | Activity (%) [10^−4 mol · l^−1 BAP = 100%] [7] | IC50 ([8]; Homo sapiens, K562, 72 h) | further results |
| --- | --- | --- | --- | --- | --- | --- | --- | --- | --- |
| COc1cc(OC)c(CNc2ncnc3nc[nH]c23)c(OC)c1 [6-(2,4,6-trimethoxybenzylamino)purine] | 3 (±3) % | > 167 µM | > 167 µM | 13 (±6) % | 153 µM | 63.6 µM | 6 (±4) % | > 167 µM | IC50 ([6]; 72 hours, listed as 2,4,6triMeO BAP): 105 µM |
| Clc1ccccc1CNc1ncnc2nc[nH]c12 [6-(2-chlorobenzylamino)purine] | 109 (±8) % |  | 16.9 µM | 93 (±4) % |  |  | 116.5 (±6.5) % |  |  |
| Oc1ccc(CNc2ncnc3nc[nH]c23)cc1O [6-(3,4-dihydroxybenzylamino)purine] | 8 (±3) % | > 167 µM | > 167 µM | 4 (±1) % | > 167 µM | > 167 µM |  | > 167 µM | SENESCENT CELLS (%) HCA25 ([9]; passage 25): 5%; SENESCENT CELLS (%) HCA45 ([9]; passage 45): 4%; SENESCENT CELLS (%) HCA80 ([9]; passage 80): 29% |
| Clc1cccc(CNc2ncnc3nc[nH]c23)c1 [6-(3-chlorobenzylamino)purine] | 96 (±5) % |  |  | 94 (±6) % |  |  | 82 (±2) % | > 167 µM | IC50 ([10]; Homo sapiens, HOS, 72 h): > 167 µM |
| COc1ccc(CNc2ncnc3nc[nH]c23)cc1O [6-(3-hydroxy-4-methoxybenzylamino)purine] | 24 (±1) % | > 167 µM | > 167 µM |  | > 167 µM | > 167 µM |  | > 167 µM |  |
| Clc1ccc(CNc2ncnc3nc[nH]c23)cc1 [6-(4-chlorobenzylamino)purine] | 35 (±7) % | > 167 µM |  | 64 (±8) % | > 167 µM | > 167 µM | 64.5 (±13.5) % | > 167 µM | IC50 ([10]; Homo sapiens, HOS, 72 h): > 167 µM |
| COc1cc(CNc2ncnc3nc[nH]c23)ccc1O [6-(4-hydroxy-3-methoxybenzylamino)purine] | 10 (±2) % | > 167 µM | > 167 µM |  | > 167 µM | > 167 µM |  | > 167 µM |  |
| O=[N+]([O-])c1ccc(CNc2ncnc3nc[nH]c23)cc1 [6-(4-nitrobenzylamino)purine] | 25 (±2) % | > 167 µM | > 167 µM |  | > 167 µM | > 167 µM | 83 (±8) % | > 167 µM |  |
| CC(C)=CCNc1ncnc2nc[nH]c12 [IP, isopentenyladenine, reference compound] |  |  |  |  |  |  |  |  | IC50 ([2]; 72 hours): > 167 µM; IC50 ([10]; 72 hours): > 167 µM; IC50 ([5]; 72 hours): > 167 µM; IC50 ([6]; 72 hours): 92.2 µM; IC50 ([8]; 72 hours): 147 µM and 162 µM |
| c1coc(CNc2ncnc3[nH]cnc23)c1 [Kinetin, reference compound] |  | > 167 µM |  |  |  |  |  | > 167 µM | IC50 ([10]; Homo sapiens, HOS, 72 h): > 167 µM; IC50 ([6]; Homo sapiens, 72 hours): 155 µM; IC50 ([8]; Homo sapiens, K562, 72 hours): 164 µM |
| C/C(=C/CNc1ncnc2nc[nH]c12)CO [cis Z, reference compound] |  |  |  |  |  |  |  |  | IC50 ([2]; 72 hours): > 167 µM; IC50 ([10]; 72 hours): > 167 µM; IC50 ([5]; 72 hours): > 167 µM; IC50 ([6]; 72 hours): > 167 µM |
